pIC50: −log10 of the molar value.
Assays:
Thromboxane A2 receptor = biological target: T1, Thromboxane A2 receptor (Homo sapiens, UniProt P21731); assay: In vitro inhibitory concentration of compound against thromboxane A2 receptor
T1 sequence (P21731 whole entry): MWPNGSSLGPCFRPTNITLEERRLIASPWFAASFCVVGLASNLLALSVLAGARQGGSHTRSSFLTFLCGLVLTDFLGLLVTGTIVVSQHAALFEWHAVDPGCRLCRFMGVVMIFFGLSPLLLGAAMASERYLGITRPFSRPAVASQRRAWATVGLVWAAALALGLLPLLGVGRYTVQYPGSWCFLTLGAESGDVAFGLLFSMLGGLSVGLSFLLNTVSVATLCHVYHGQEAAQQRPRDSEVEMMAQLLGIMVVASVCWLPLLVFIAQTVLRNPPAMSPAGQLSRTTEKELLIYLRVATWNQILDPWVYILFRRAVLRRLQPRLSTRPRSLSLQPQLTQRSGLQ

[1] = biological target: T2, Thromboxane-A synthase (Homo sapiens) (UniProt P24557); assay: Percent inhibition against thromboxane A2 synthase by the compound at a concentration of 10e-6 M
T2 sequence (whole entry): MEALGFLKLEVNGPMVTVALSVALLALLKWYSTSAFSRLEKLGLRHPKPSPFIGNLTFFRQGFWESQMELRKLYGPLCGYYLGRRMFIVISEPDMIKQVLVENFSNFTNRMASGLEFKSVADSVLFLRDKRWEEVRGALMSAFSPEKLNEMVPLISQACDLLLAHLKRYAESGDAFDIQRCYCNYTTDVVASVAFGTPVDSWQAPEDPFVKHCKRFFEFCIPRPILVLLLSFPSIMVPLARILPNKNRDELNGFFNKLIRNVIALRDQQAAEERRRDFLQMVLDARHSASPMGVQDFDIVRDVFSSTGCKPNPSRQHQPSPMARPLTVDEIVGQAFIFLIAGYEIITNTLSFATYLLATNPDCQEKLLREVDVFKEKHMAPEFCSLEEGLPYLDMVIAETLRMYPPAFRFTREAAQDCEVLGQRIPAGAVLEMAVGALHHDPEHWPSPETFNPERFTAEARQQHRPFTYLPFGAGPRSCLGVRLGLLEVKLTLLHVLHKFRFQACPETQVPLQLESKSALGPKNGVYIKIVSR

pIC50 (Thromboxane A2 receptor)	inhibition [1] [%]	SMILES
7.96	–	CC(C)(C)/N=C(\NC#N)Nc1cccc(/C(=C/CCCC(=O)O)c2cccnc2)c1
–	97.4	CCCCCNC(=O)NS(=O)(=O)c1cc([N+](=O)[O-])ccc1NC1CCCCC1

From ChEMBL document CHEMBL1134019, “Structure determination and comparison of BM567, a sulfonylurea, with terbogrel, two compounds with dual action, thromboxane receptor antagonism and thromboxane synthase inhibition” (Bioorg Med Chem Lett, 2001)
